Laboratory results reported in US20260306641A1, “HELICASE DEGRADERS” (priority 2023, published 2026).
Where two headings read alike, the source gives them in different places.

How the values were obtained:
[1] = tested on: Cdk1 and Cdk2 targets (Rb, Cdc6, PP1a); assay: Immunoblot of Cdk1/Cdk2-dependent targets, HaCaT cells; type: cell-based, human; details: extended exposure (18 hrs)
Protocol: Immunoblots of total proteins from synchronized HaCaT cells treated with compounds at time of release (0 hr; beginning of G1 phase) and collected after 18 hrs of exposure. (FIG. 5A) DDK-dependent phosphorylation sites on Mcm2 were analyzed with phospho-specific antibodies. (FIG. 5B) Cdk1- and Cdk2-dependent targets (Rb, Cdc6, and PP1α) were analyzed with phospho-specific antibodies.

[2] = tested on: T1, Nc1ncnc2c1ncn2[C@@H]1O[C@H](COP(=O)(O)OP(=O)(O)OP(=O)(O)O)[C@@H](O)[C@H]1O; assay: hCMG helicase fork-unwinding (strand displacement) assay; type: biochemical, human; details: other: role: substrate
T1 construct: made in house; host or cells: High Five insect cells, baculovirus (11 viruses co-infected)
Protocol: (§1) The human CMG helicase was purified following the established and validated protocol of Hurwitz and colleagues(19,20), with minor modifications. A detailed description of the approach is shown here, to allow for comparisons to the methods described by the Hurwitz group.
(§2) High Five insect cells (2-3 million cells/ml, 1.5 L), were in cultured in a shaking incubator at 27° C. in suspension with ESF921 serum free medium (Expression Systems, CA; cat. #96-001-01), then co-infected for 60 hrs with 11 baculoviruses expressing human 6His2Flag-Cdc45, the human MCM hexamer (Mcm2, Mcm3, Mcm4, Mem5, Mcm6, Mcm7), and human GINS (GST-Sld5, Psf3, Psf2, and Psf1). Each virus was infected at an MOI of ~10 from individual virus stocks. Infected cells were harvested by centrifugation at 650×g for 5 min at 4° C., washed with cold PBS, frozen on dry ice, and stored at −80° C. until use. The cell pellet (~20 mL) was thawed on ice, resuspended in 45 ml Hypotonic Buffer [20 mM Hepes-NaOH (pH 7.5), 5 mM KCl, 1.5 mM MgCl2] with protease inhibitors (1 mM [COMPOUND LEFT OUT], 1 mM Benzamidine, 0.15 μM Aprotinin, 4 μM Leupeptin, and 1 μM Antipain), and kept on ice for 10 min before lysing by Dounce homogenization (tight fitting, 60 strokes). The cell extract was adjusted to 0.42 M potassium acetate and centrifuged at 43,000×g for 1 hr at 4° C. The cleared lysate was mixed with 0.75 ml glutathione beads (cat. #17-0756-05; GE Healthcare) pre-equilibrated with FEQ buffer [20 mM Hepes-NaOH (pH 7.5), 0.42 M potassium acetate, 5 mM KCl, 1.5 mM MgCl2] and incubated by rotation at 4° C. overnight. Following centrifugation at 290×g at 4° C., the bound glutathione beads were washed four times (15 min each wash) with 40 ml of FW buffer [20 mM Hepes-NaOH (pH 7.5), 0.42 M potassium acetate, 1 mM DTT, 1 mM EDTA, 0.01% NP40, 10% glycerol (vol/vol) with protease inhibitors as above] containing protease inhibitors (as above). Bound proteins were eluted at 4° C. three times (1 hr each elution) with 3.5 ml Q buffer [20 mM Hepes-NaOH (pH 7.5), 1 mM DTT, 1 mM EDTA, 0.01% NP40, 10% glycerol (vol/vol), and protease inhibitors as above] containing 0.15 M potassium acetate and 20 mM reduced glutathione. The eluted fractions were combined and applied to a HiTrap Q-Sepharose FF column (HiTrap Q FF 1 mL, cat. #17505301, Cytiva), pre-equilibrated 3× with 5 ml of Q buffer containing 0.15 M, 0.75 M, 0.15M potassium acetate, in sequence. The Q-Sepharose FF column was washed with 10 ml of FW buffer containing protease inhibitors (as above). The proteins were eluted with 10 ml of Q buffer containing 0.75 M potassium acetate. The eluted fraction was mixed with 0.15 ml of anti-Flag M2 affinity gel/beads and incubated while rotating at 4° C. overnight. After centrifugation at 290×g for 5 min at 4° C., the beads were washed three times with 10 ml PreScission buffer [50 mM Tris-HCl (pH 7.5), 0.15 M NaCl, 1 mM DTT, 1 mM EDTA] for 15 min at 4° C., and eluted at 4° C. three times (1 hr each elution) with 0.2 ml PreScission enzyme buffer containing 0.2 mg/ml 3×-Flag peptides. The combined eluates were incubated with 20 Units of PreScission Protease (GE Healthcare) and 0.1 mL glutathione beads for 4 hr at 4° C. The supernatant was layered onto a 15-40% glycerol gradient [25 mM Tris-HCl (pH 7.5), 50 mM NaCl, 1 mM DTT, 1 mM EDTA, 0.01% NP40, protease inhibitors as above] in a 5 mL ultra-centrifugation tube and centrifuged at 260,000×g for 14 hr at 4° C. Glycerol fractions (0.15 mL each fraction) were collected from bottom of tube and stored at −80° C. until use. Typically, fractions 6-9 contained complete hCMG (~750-800 kDa) and co-migrated with thyroglobulin.
(§3) Helicase fork-unwinding assays were performed at 37° C. for 1 hr in 20 μL reaction volumes using 2-4 μl of hCMG (~15-30 fmol), in a buffer consisting of 25 mM Hepes-NaOH (pH 7.5), 5 mM NaCl, 0.5 mM ATP, 10 mM magnesium acetate, 1 mM DTT, 0.1 mg/ml bovine serum albumin (BSA), and ~10 fmol of radiolabeled DNA forks (20). […]

[3] = tested on: solid tumor cell lines (NCI-60 set); details: cited from earlier work
[4] = tested on: T2, human CMG helicase (hCMG); assay: hCMG helicase fork-unwinding (strand displacement) assay; type: biochemical
T2 construct: made in house; host or cells: High Five insect cells, baculovirus (11 viruses co-infected)
Protocol: as §1, §2, §3

[5] = tested on: T2, human CMG helicase (hCMG); assay: hCMG ATPase activity, FP ADP^2 Transcreener assay; type: biochemical; details: primary FP ATPase assay
Protocol: The fluorescent-polarization (FP) ADP-sensing assays were performed using the Transcreener® ADP^2 FP assay kit (cat #3010-1K, Bellbrook Labs). For hCMG inhibitor screening, assays were performed at 37° C. for 1 hr in 10 μl reactions in a 384-well plate (cat. #4514, Corning) using 2 μL of hCMG (~15 fmol), 25 mM Hepes-NaOH (pH 7.5), 10 mM NaCl, 0.5 mM ATP, 10 mM magnesium acetate, 1 mM DTT, 0.1 mg/ml BSA, and DNA fork substrates. […] Selected inhibitors or samples from a chemical library were added into the reactions when conducting the screening or testing inhibitor effectiveness. The NCI Diversity Set VI chemical library was obtained from the National Cancer Institute (Bethesda, MD).
The window of sensitivity for the ADP-sensing assays is determined by setting up two 10 μL control samples without any added hCMG helicase: a Low-FP mixture (4 nM ADP Alexa Fluor-633 Tracer alone) and a High-FP mixture (4 nM ADP Alexa Fluor-633 Tracer plus patented anti-ADP^2 Antibody). The amount of ADP^2 Antibody used had to be adjusted to account for the use of 500 μM ATP in our hCMG assays, versus 10 μM ATP in enzyme reactions typically assessed with standard kits prepared by BellBrook Labs. […] This was done according to the manufacturer by performing a titration with increasing ADP^2 Antibody, fixed 4 nM ADP Alexa Fluor-633 Tracer, and 500 μM ATP to determine the ~EC80-85 for millipol (mP) changes, which determined the optimal ADP^2 Antibody concentration to use as 0.64 mg/ml (FIG. 9A). Samples are read with a Perkin Elmer Envision II plate reader with optimized Cy5 (far-red) FP-compatible mirror and cubes (cat #2100-8390, Perkin Elmer). The Low-FP sample is the least polarized and gives a low mP reading, while the High-FP sample is the most polarized and gives the highest mP reading. The difference between the Low-FP and High-FP values defines the FP assay window, which is normally in a range of 150-200 mP under ideal conditions for screening purposes. The hCMG helicase hydrolyzes ATP to ADP and decreases the mP reading within this window, with an ideal change (ΔmP) in the FP window of at least 50% to be in a readable range for inhibitor screening (as per manufacturer). Potential hCMG chemical inhibitors reverse this effect and cause the mP readings to increase.
We performed a titration with increasing and decreasing concentrations of ADP and ATP, respectively, to assess the sensitivity of the FP assay in detecting ADP production (FIG. 9B). Consistent with the stated manufacturer predictions, the assay can reliably detect 1-3% changes in ADP production (i.e., 5-15 μM ADP production) in starting concentrations of ATP of 500 μM, with a Z′ efficiency between 0.6-0.8 (determined following manufacturer protocols).
Once the hCMG enzyme reactions are complete, 10 μL of 1× Stop Solution and Detection Buffer (buffer from BellBrook Labs; containing 4 nM ADP Alexa Fluor-633 Tracer plus ADP^2 Antibody) are added to each reaction, and to the High-FP control. The Low-FP control receives 10 μL of 1× Stop Solution and Detection Buffer containing only 4 nM ADP Alexa Fluor-633 Tracer (no Antibody). Samples are incubated at 25° C. for 1 hr, then read in the plate reader. […] Plate readings from these tests of potential positive hits should be similar to that seen with the Low-FP control, or such hits may instead be false-positives.

[6] = tested on: T2, human CMG helicase (hCMG); details: role: substrate, cited from earlier work

T2 sequence (P49736 whole entry): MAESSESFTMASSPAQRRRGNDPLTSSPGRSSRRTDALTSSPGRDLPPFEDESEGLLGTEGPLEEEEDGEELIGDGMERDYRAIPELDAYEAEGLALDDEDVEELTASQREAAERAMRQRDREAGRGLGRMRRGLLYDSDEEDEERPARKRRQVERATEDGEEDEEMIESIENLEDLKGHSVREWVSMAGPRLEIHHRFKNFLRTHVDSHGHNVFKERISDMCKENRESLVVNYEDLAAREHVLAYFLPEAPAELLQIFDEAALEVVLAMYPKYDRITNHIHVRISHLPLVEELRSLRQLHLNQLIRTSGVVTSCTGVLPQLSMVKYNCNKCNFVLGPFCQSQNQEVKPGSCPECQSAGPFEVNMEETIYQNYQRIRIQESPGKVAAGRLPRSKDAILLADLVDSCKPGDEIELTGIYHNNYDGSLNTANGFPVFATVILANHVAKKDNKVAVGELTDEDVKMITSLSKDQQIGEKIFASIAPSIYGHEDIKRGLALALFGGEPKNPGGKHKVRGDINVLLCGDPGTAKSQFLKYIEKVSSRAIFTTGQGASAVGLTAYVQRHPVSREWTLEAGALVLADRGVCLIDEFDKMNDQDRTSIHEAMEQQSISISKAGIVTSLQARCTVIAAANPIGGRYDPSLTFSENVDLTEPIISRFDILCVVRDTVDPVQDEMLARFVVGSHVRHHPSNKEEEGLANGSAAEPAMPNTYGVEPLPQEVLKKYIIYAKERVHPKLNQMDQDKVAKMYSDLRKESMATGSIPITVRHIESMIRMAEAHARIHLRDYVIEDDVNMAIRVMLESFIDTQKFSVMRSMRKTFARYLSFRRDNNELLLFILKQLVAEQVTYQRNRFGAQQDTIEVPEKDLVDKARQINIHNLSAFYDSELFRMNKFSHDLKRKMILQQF
T2 sequence (P25205 whole entry, further chain): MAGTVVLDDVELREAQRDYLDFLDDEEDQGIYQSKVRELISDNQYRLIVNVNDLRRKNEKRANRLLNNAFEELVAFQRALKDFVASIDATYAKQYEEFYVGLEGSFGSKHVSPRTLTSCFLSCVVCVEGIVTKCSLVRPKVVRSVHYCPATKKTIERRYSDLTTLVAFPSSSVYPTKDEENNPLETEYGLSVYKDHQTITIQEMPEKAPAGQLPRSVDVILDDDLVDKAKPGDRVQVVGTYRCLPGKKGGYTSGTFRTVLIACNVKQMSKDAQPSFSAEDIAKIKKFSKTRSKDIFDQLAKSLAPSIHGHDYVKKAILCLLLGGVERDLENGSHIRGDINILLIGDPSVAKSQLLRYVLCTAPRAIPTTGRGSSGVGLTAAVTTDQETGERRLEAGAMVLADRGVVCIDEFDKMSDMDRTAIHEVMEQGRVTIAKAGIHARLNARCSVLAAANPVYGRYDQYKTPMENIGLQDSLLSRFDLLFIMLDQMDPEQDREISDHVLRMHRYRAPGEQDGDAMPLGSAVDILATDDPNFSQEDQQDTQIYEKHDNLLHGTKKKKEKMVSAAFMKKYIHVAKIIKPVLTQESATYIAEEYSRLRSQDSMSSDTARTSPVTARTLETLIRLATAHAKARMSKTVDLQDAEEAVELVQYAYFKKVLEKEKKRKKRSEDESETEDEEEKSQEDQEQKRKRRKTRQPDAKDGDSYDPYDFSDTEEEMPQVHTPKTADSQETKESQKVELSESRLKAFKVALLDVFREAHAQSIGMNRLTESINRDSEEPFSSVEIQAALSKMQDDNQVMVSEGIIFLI
T2 sequence (P33991 whole entry, further chain): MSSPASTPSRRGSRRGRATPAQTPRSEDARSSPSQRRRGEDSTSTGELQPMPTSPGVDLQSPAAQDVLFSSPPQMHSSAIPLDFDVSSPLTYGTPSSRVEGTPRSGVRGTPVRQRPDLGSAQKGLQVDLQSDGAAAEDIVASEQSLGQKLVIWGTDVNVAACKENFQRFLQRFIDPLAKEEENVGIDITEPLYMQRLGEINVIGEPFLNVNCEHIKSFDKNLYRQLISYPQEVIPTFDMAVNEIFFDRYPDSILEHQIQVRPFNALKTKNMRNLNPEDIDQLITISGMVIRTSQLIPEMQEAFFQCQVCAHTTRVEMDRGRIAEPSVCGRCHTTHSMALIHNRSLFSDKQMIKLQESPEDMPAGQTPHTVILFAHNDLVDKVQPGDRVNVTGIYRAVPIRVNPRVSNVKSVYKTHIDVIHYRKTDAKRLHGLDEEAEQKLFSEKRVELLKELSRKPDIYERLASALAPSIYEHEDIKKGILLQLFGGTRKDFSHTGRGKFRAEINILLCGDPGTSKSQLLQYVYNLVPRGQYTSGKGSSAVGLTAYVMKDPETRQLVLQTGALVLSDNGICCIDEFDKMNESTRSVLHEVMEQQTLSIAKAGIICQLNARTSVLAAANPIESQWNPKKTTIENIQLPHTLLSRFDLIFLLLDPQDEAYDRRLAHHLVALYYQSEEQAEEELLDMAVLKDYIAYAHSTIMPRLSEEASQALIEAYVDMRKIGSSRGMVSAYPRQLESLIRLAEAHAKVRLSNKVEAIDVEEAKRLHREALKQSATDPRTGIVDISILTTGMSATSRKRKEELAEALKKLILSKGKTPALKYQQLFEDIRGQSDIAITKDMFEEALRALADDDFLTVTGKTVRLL
T2 sequence (P33992 whole entry, further chain): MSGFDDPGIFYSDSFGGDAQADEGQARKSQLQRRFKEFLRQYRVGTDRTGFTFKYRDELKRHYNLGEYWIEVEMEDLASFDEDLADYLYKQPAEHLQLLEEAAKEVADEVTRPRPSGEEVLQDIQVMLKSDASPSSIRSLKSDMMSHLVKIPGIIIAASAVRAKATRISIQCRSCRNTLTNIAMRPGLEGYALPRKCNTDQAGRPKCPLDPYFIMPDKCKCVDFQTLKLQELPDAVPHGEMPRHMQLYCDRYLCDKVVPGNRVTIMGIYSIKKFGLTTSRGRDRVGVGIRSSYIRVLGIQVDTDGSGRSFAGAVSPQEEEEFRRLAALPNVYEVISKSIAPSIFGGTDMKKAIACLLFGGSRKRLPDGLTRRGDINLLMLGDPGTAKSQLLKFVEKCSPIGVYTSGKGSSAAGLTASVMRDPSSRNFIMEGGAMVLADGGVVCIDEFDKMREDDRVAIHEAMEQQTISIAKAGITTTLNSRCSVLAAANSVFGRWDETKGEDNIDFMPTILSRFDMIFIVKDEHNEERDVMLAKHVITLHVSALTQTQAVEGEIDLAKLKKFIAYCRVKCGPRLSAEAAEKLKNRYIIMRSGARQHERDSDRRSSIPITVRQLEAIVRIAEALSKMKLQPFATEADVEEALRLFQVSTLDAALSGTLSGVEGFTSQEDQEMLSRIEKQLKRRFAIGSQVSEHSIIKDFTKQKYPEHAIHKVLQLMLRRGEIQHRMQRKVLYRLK
T2 sequence (Q14566 whole entry, further chain): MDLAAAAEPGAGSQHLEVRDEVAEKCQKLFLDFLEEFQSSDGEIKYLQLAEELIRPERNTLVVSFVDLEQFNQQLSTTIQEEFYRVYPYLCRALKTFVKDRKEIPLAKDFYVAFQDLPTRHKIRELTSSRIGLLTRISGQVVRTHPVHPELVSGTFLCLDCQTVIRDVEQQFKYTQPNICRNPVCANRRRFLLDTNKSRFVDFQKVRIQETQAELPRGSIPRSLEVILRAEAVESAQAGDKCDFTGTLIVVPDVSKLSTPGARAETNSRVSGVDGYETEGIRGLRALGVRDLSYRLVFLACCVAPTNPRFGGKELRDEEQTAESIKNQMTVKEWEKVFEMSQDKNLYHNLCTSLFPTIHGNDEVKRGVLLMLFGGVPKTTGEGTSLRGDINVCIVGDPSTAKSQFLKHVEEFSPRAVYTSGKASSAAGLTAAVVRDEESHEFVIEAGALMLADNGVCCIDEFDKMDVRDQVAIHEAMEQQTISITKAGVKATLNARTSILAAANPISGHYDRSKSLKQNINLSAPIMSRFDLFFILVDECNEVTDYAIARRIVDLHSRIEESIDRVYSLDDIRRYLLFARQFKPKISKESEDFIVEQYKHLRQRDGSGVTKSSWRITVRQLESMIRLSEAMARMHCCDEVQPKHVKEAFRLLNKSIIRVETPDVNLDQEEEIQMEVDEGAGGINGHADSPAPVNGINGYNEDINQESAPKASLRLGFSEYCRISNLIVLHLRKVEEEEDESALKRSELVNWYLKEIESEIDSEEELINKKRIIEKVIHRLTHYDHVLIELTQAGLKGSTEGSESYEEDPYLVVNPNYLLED
T2 sequence (P33993 whole entry, further chain): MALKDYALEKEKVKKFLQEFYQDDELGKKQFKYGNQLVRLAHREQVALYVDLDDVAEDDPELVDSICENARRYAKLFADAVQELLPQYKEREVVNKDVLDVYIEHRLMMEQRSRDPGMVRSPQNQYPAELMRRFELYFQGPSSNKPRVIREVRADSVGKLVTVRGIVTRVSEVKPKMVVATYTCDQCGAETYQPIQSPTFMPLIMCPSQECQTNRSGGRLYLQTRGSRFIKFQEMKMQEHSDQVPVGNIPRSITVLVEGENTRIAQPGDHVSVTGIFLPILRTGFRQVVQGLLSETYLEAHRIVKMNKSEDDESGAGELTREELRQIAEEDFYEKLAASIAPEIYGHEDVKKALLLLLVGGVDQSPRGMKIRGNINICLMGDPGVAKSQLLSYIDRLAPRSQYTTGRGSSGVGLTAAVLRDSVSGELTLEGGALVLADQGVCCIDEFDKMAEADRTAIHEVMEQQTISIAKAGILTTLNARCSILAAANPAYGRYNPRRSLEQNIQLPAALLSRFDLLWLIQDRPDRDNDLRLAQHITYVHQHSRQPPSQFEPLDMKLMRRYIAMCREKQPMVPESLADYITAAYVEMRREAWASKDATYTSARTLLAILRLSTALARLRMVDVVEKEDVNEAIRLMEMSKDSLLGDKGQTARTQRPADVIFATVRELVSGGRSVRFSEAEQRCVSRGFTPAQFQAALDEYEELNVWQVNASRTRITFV

Molecule: O=C(NC1CCNCC1)c1[nH]ncc1NC(=O)c1c(Cl)cccc1Cl [AT7519]
- phosphorylation of Cdk2 targets Rb, Cdc6 (S54P) and Cdk1 target PP1a [1]: blocks phosphorylation

Molecule: human CMG helicase (hCMG) (Homo sapiens)
- Km ([2]; inhibitor CA1 2.5 μM present): 1550 µM
- Km ([2]; no inhibitor): 690 µM

Molecule: CO[C@@H]1[C@@H](OC(=O)c2ccc(C)[nH]2)[C@@H](O)[C@H](Oc2ccc3c(O)c(NC(=O)c4ccc(O)c(CC=C(C)C)c4)c(=O)oc3c2Cl)OC1(C)C [clorobiocin]
- growth suppression of solid tumor cell lines [3]: sensitive to similar low micromolar concentrations
- hCMG helicase inhibition in secondary strand-displacement assay ([4]; 500 μM compound): effective hCMG helicase inhibitors
- inhibition of hCMG ATP hydrolysis [5]: effective nature of hCMG inhibition

Molecule: Nc1ncnc2c1ncn2[C@@H]1O[C@H](COP(=O)(O)OP(=O)(O)OP(=O)(O)O)[C@@H](O)[C@H]1O [ATP]
- ATP hydrolysis rate of the human helicase ([6]; 500 μM ATP): −80 mol-ADP per minute per mol-hCMG
- Km ([6]; described by others, read-out: Km for hCMG ATP hydrolysis activity): 625 µM
- Vmax of the hCMG ([4]; role: substrate, inhibitor CA1 2.5 μM present): without a change in the Vmax
- Km ([4]; role: substrate, no inhibitor, read-out: Km for ATP, fork-unwinding activity): 690 µM
